Experimental data reported in patent publication US9486425B2 (NESTEC S.A., priority 2012, dated 2016).

Key:
[1] = test system: Glutathione peroxidase 2 (Gpx2); assay: mRNA expression in hepatocytes (qPCR): glutathione peroxidase 2; format: cell-based; conditions: rat hepatocytes, 24 h, dose range (FIG. 5)
Description: (§1) Hepatocytes were isolated from Sprague-Dawley male rats (190-240 g) by liver perfusion. […] After overnight incubation, the medium was removed and 2.5 ml of fresh medium containing the test substances was added. The dishes were incubated for 24 h at 37° C. in a 5% CO2/air incubator. Cell lysates for the RNA extraction were obtained by adding 400 μl of RNA lysis buffer (RA-1 with 1% v/v β-mercaptoethanol) to the cells and vigorously mixed (vortex). Total RNA was extracted from the cell lysates according manufacturer's instructions (Nucleospin RNA2 kit, Macherey-Nagel, Düren, Germany) with minor changes: 20 min of DNASE treatment and 60 μl of elution volume. Total RNAs were quantified using Ribogren kit (Molecular probes) and the quality was evaluated by capillary electrophoresis using Bionalyzer (Agilent). Reverse transcription reactions were performed with the Multiscribe reverse transcriptase enzyme in the presence of random hexamers primers (Reverse Transcription Reagent from Applied Biosystems). Gene expression quantification was performed using pre-designed TaqMan probes (Applied Biosystems). Each qPCR reaction was done in technical duplicates on 50 ng of cDNA. The arithmetic mean of two housekeeping genes (GAPDH and β-Actin) was used for normalization. The mRNA gene expression calculations are based on the ΔΔCt method: […] [table]

[2] = test system: Glutathione-S-transferase, pi 1 (Gstp1); assay: mRNA expression in hepatocytes (qPCR): glutathione-S-transferase; format: cell-based; conditions: rat hepatocytes, 24 h, dose range (FIG. 5)
Description: as §1

THP-1 blue cells = assay: THP-1 blue cell viability (Cell Titer-Glo); format: cell-based, human
Description: 200000 cells/well were seeded in 100 μl of culture medium in 96 well flat bottom transparent plates. […] 20 μl of culture media containing (or not) LPS 055:B5 (Sigma) (100 ng/ml final) was added and the plates were incubated for 16 hours at 37° C. in a 5% CO2/air incubator.
Cell culture supernatants were carefully transferred to 96 well-plates for NF-κB activity measurement which is proportional to the level of secreted alkaline phosphatase. Briefly, 100 μl of supernatants were mixed with 150 μl of QuantiBlue (Invivogen) in a 96 well-plates incubated for 3 h at 37° C. before OD measurements at 620 nm with Sunrise microplate reader (Tecan, Mannedorf, Switzerland). Cell viability was determined using Cell Titer-Glo kit as described above.

[3] = test system: Glutathione peroxidase 1 (Gpx1); assay: mRNA expression in hepatocytes (qPCR): glutathione peroxidase 1; format: cell-based; conditions: rat hepatocytes, 24 h, dose range (FIG. 5)
Description: as §1

[4] = test system: Glutamate cysteine ligase, catalytic subunit (Gclc); assay: mRNA expression in hepatocytes (qPCR): glutamate cysteine ligase catalytic subunit; format: cell-based; conditions: rat hepatocytes, 24 h, dose range (FIG. 5)
Description: as §1

AREc32 cells = assay: AREc32 cell viability (ATP quantification, Cell Titer-Glo); format: cell-based; conditions: 24 h
Description: To determine the Nrf2 activation the samples were tested on AREc32 cells (seeded in 96 well plates) using 10 independent dilutions (1/2, 1/4, 1/6, 1/10, 1/15, 1/20, 1/25, 1/30, 1/40 and 1/50) and incubated for 24 hours at 37° C. in a 5% CO2/air incubator. The luciferase activity and the cell viability (ATP measurements) were determined using the Luciferase and Cell Titer-Glo kits from Promega.
The cell viability was also measured using a cell Titer-Glo kit (ATP quantification).

[5] = test system: Glutathione reductase (Gsr); assay: mRNA expression in hepatocytes (qPCR): glutathione reductase; format: cell-based, rat; conditions: liver cells (hepatocytes)
Description: as §1

hepatocytes = assay: Hepatocyte viability (LDH measurement); format: cell-based; conditions: rat hepatocytes, 24 h
Description: Hepatocytes were isolated from Sprague-Dawley male rats (190-240 g) by liver perfusion. Cells were seeded at 2500000 cells/dish (6 cm) in 2.5 ml of Williams'E medium supplemented with 2 mM L-glutamine, 10 mM Hepes (Sigma), 1% ITS+, 1% Penicillin/Streptomycin (Sigma) and 25 nM Dexamethasone (Sigma). After overnight incubation, the medium was removed and 2.5 ml of fresh medium containing the test substances was added. The dishes were incubated for 24 h at 37° C. in a 5% CO2/air incubator.
At the end of the incubation, the cell supernatants were harvested for LDH (lactate dehydrogenase) measurement, which is an indicator of cell viability. Cells were washed once with 2.5 ml of cold PBS 1× then detached from the Petri dishes by scraping. Cells were then transferred to 1.5 ml Eppendorf tubes which were centrifuged for 1 min at 4° C. at 7000 g.

Nrf2 = Nrf2 reporter assay (ARE-luciferase, AREc32 cells); format: cell-based; conditions: 24 h, dose range 0 to 200 μM (FIG. 3)
Description: Activation of Nrf2 was measured using an Nrf2 reporter assay. This assay is based on the AREc32 cell line, from CRX biosciences (Dundee, Scotland), a stably transfected MCF7 (breast adenocarcinoma) cell line that contains a luciferase gene construct under the control of the ARE. […] Luciferase activity is determined using a luciferase kit form Promega (Madison, Wis.). The luciferase activity is proportional to the activation of Nrf2.
For each run the luciferase activities, measured in Relative Light Units (RLU), of all the wells were normalized with the mean of the luciferase activity of the cells only of all the plates. Among all the samples tested the normalization procedure was found not to affect the data and this observation permits the comparison of samples measured in different runs.
For each sample the Nrf2 activation was calculated as follows: […]
The luciferase content per sample allows a semi quantification of the Nrf2 activation by reflecting the amount of the Nrf2 activating molecule. […]

[6] = test system: NAD(P)H dehydrogenase quinone (Nqo1); assay: mRNA expression in hepatocytes (qPCR): NAD(P)H dehydrogenase quinone; format: cell-based; conditions: rat hepatocytes, 24 h, dose range (FIG. 5)
Description: as §1

NF-κB = NF-κB activity in HT-29 clone 34 cells (SEAP reporter and IL-8); format: cell-based, human
Description: Two in-vitro systems were used: human colonic cells (HT-29 clone 34) and human monocytes/macrophages (THP-1 blue cells). The human colonic adenocarcinoma HT-29 clone 34 cell line (passage 42-50) are adherent cells stably transfected with a NF-κB/SEAP reporter plasmid. They were cultured in DMEM high glucose (4.5 g/L) (Invitrogen) containing 1% of stable L-glutamine and supplemented with 10% of heat inactivated (one hour at 56° C.) Foetal Calf Serum (FCS) (Bioconcept, Allschwil, Switzerland), 1% of Penicillin/Streptomycin (Sigma) and 500 μg/ml of Geneticin (PAA, Pasching, Austria) at 37° C. in a 5% CO2/air incubator. Culture medium was renewed every two days until the cell monolayer reached ˜90% confluence. Cells were sub-cultured using 1× Trypsin/EDTA (Sigma). 10000 cells/well were seeded in 200 μl of culture medium in flat bottom white border 96 well plates (Greiner Bio One, Kremsmuenster, Austria). […] Cell culture supernatants were then collected for measurement of NF-κB activity (determination of secreted alkaline phosphatase and IL-8 production) using Phosphalight (Applied Biosystems) and IL-8 singleplex (Meso Scale, Gaithersburg, Md.) kits, respectively.

Heme oxygenase 1 (HO-1) = assay: mRNA expression in hepatocytes (qPCR): heme oxygenase 1; format: cell-based; conditions: rat hepatocytes, 24 h, dose range (FIG. 5)
Description: as §1

HT-29 clone 34 cells = assay: HT-29 clone 34 cell viability (ATP, Cell Titer-Glo); format: cell-based, human
Description: 10000 cells/well were seeded in 200 μl of culture medium in flat bottom white border 96 well plates (Greiner Bio One, Kremsmuenster, Austria). […] 20 μl of experimental medium containing (or not) LPS 055:B5 or rhTNF-α (100 and 10 ng/ml final, respectively) was added and the plates were incubated for 24 hours at 37° C. in a 5% CO2/air incubator.
Cell viability was determined by measuring ATP using Cell Titer-Glo kit (Promega). Briefly, remaining adherent HT-29 clone 34 cells were incubated for 10 min at room temperature under horizontal shaking (250 rpm) with 120 μl of Cell Titer-Glo reagent (pre-diluted twice in 1×PBS) and the luminescence was measured using Polarstar microplate reader (BMG, Offenburg, Germany) for 1000 ms with a gain value set to 3500.

[7] = test system: UDP-glucuronosyltransferase (UGT); assay: mRNA expression in hepatocytes (qPCR): UDP-glucuronosyltransferase; format: cell-based; conditions: rat hepatocytes, 24 h, dose range (FIG. 5)
Description: as §1

mRNA expression of glutathione peroxidase 2 [1]: not affected
mRNA expression of glutathione-S-transferase [2]: increased
mRNA expression of glutathione peroxidase 1 [3]: not affected
mRNA expression of glutamate cysteine ligase catalytic subunit [4]: increased
gene expression of glutathione reductase [5]: activated gene expression
mRNA expression of NAD(P)H dehydrogenase quinone [6]: increased
mRNA expression of heme oxygenase 1 (Heme oxygenase 1 (HO-1)): increased
mRNA expression of UDP-glucuronosyltransferase (UGT) [7]: increased
Compound: CC(=O)/C=C/C(=O)O [4-oxo-2-pentenoic acid]
doses toxic to cells (THP-1 blue cells): higher than 75 μM
doses at which viability of AREc32 cells was not affected (AREc32 cells): lower than 70 μM
cell viability (LDH measurements) (hepatocytes): not affected
Nrf2 activation (Nrf2): strongly activate Nrf2 in a dose dependent manner
dose giving the best inhibition of NF-κB activity (SEAP and IL-8) (NF-κB; HT-29 clone 34 cells stimulated with LPS): 50 µM
inhibition of NF-κB activity (SEAP and IL-8 secretion) (NF-κB; HT-29 clone 34 cells stimulated with LPS (100 ng/ml), 4 h pre-incubation, 24 h): inhibits NF-κB activity in a dose dependent manner
NF-κB activity (SEAP or IL-8) in the absence of LPS (NF-κB; HT-29 clone 34 cells, no LPS, doses tested 3 to 400 μM): no NF-κB activity was observed
doses showing a decrease in cell viability (HT-29 clone 34 cells): > 50 µM
